Data taken from ChEMBL document CHEMBL3885861, “Open TG-GATES”.

Species: Rattus norvegicus
Assay: Open TG-GATES - Regimen: Single
Format: toxicity, organism-based, Sprague-Dawley
Design: regimen Single, gender Male, age 6 weeks
Conditions: in vivo, po, 5 mg/kg, route gavage, dose level Middle; for Bas / Eos / Fbg / Hb / Ht / Lym / MCHC / MCV / Mono / Neu / Plat / RBC / Ret / WBC: tissue Blood; for KIDNEY_TOTAL: tissue Kidney; for LIVER: tissue Liver; for ALT / AST / BUN / CRE / Ca / Cl / DBIL / GLC / IP / K / LDH / Na / PL / RALB / TBIL / TC / TP / gamma-GTP: tissue Plasma

C[C@@H]1C[C@H]2[C@@H]3CCC4=CC(=O)C=C[C@]4(C)[C@@]3(F)[C@@H](O)C[C@]2(C)[C@@]1(O)C(=O)CO [DEXAMETHASONE]
TERMINAL_BW (3 h): 210 g | Bas (3 h): 0% | Eos (3 h): 0.6% | Fbg (3 h): 235.2 mg/dL | Hb (3 h): 13.2 g/dL | Ht (3 h): 40.3% | Lym (3 h): 71.4% | MCHC (3 h): 32.8% | MCV (3 h): 65 fL | Mono (3 h): 2.4% | Neu (3 h): 25.6% | Plat (3 h): 121.2 x10_4/uL | RBC (3 h): 620.6 x10_4/ul | Ret (3 h): 9.6% | WBC (3 h): 46.5 x10_2/uL | KIDNEY_TOTAL (3 h): 0.6 g | LIVER (3 h): 10.6 g | ALT (3 h): 41 IU/L | AST (3 h): 77.8 IU/L | BUN (3 h): 15 mg/dL | CRE (3 h): 0.4 mg/dL | Ca (3 h): 11.4 mg/dL | Cl (3 h): 101.8 meq/L | DBIL (3 h): 0.014 mg/dL | GLC (3 h): 193.4 mg/dL | IP (3 h): 11.9 mg/dL | K (3 h): 4.1 meq/L | LDH (3 h): 103.8 IU/L | Na (3 h): 141.2 meq/L | PL (3 h): 157.4 mg/dL | RALB (3 h): 4.2 g/dL | TBIL (3 h): 0.046 mg/dL | TC (3 h): 91.2 mg/dL | TP (3 h): 6 g/dL | gamma-GTP (3 h): 0.4 IU/L | TERMINAL_BW (6 h): 205.5 g | Bas (6 h): 0% | Eos (6 h): 0.6% | Fbg (6 h): 243.6 mg/dL | Hb (6 h): 12.9 g/dL | Ht (6 h): 39.2% | Lym (6 h): 59.4% | MCHC (6 h): 32.8% | MCV (6 h): 64.4 fL | Mono (6 h): 3.6% | Neu (6 h): 36.6% | Plat (6 h): 129.5 x10_4/uL | RBC (6 h): 609.4 x10_4/ul | Ret (6 h): 6.7% | WBC (6 h): 27.3 x10_2/uL | KIDNEY_TOTAL (6 h): 0.6 g | LIVER (6 h): 11.2 g | ALT (6 h): 39.8 IU/L | AST (6 h): 82.6 IU/L | BUN (6 h): 17.2 mg/dL | CRE (6 h): 0.4 mg/dL | Ca (6 h): 11.6 mg/dL | Cl (6 h): 103.2 meq/L | DBIL (6 h): 0.01 mg/dL | GLC (6 h): 223.8 mg/dL | IP (6 h): 7.7 mg/dL | K (6 h): 4.1 meq/L | LDH (6 h): 84.4 IU/L | Na (6 h): 138.8 meq/L | PL (6 h): 153.6 mg/dL | RALB (6 h): 4.5 g/dL | TBIL (6 h): 0.036 mg/dL | TC (6 h): 101.4 mg/dL | TP (6 h): 6.3 g/dL | gamma-GTP (6 h): 0 IU/L | TERMINAL_BW (9 h): 199.5 g | Bas (9 h): 0% | Eos (9 h): 0.2% | Fbg (9 h): 246 mg/dL | Hb (9 h): 13.6 g/dL | Ht (9 h): 41.5% | Lym (9 h): 37% | MCHC (9 h): 32.7% | MCV (9 h): 64.4 fL | Mono (9 h): 1.4% | Neu (9 h): 61.2% | Plat (9 h): 122.1 x10_4/uL | RBC (9 h): 645.2 x10_4/ul | Ret (9 h): 6% | WBC (9 h): 18.2 x10_2/uL | KIDNEY_TOTAL (9 h): 0.4 g | LIVER (9 h): 10.8 g | ALT (9 h): 39.4 IU/L | AST (9 h): 76.8 IU/L | BUN (9 h): 19.4 mg/dL | CRE (9 h): 0.4 mg/dL | Ca (9 h): 10.9 mg/dL | Cl (9 h): 102 meq/L | DBIL (9 h): 0.008 mg/dL | GLC (9 h): 226 mg/dL | IP (9 h): 7.2 mg/dL | K (9 h): 3.9 meq/L | LDH (9 h): 104.4 IU/L | Na (9 h): 138.6 meq/L | PL (9 h): 179.4 mg/dL | RALB (9 h): 4.6 g/dL | TBIL (9 h): 0.032 mg/dL | TC (9 h): 118 mg/dL | TP (9 h): 6.7 g/dL | gamma-GTP (9 h): 0.8 IU/L | TERMINAL_BW (24 h): 208.2 g | Bas (24 h): 0% | Eos (24 h): 1% | Fbg (24 h): 232.4 mg/dL | Hb (24 h): 13.4 g/dL | Ht (24 h): 40.4% | Lym (24 h): 46.8% | MCHC (24 h): 33.1% | MCV (24 h): 63.3 fL | Mono (24 h): 9.2% | Neu (24 h): 43.2% | Plat (24 h): 136.7 x10_4/uL | RBC (24 h): 638.4 x10_4/ul | Ret (24 h): 5.4% | WBC (24 h): 47.5 x10_2/uL | KIDNEY_TOTAL (24 h): 0.4 g | LIVER (24 h): 13.2 g | ALT (24 h): 37.2 IU/L | AST (24 h): 83.4 IU/L | BUN (24 h): 17.6 mg/dL | CRE (24 h): 0.4 mg/dL | Ca (24 h): 11.4 mg/dL | Cl (24 h): 99.4 meq/L | DBIL (24 h): 0.022 mg/dL | GLC (24 h): 205 mg/dL | IP (24 h): 6.8 mg/dL | K (24 h): 5.1 meq/L | LDH (24 h): 96 IU/L | Na (24 h): 137.8 meq/L | PL (24 h): 249.2 mg/dL | RALB (24 h): 4.8 g/dL | TBIL (24 h): 0.044 mg/dL | TC (24 h): 119.2 mg/dL | TP (24 h): 6.8 g/dL
